Earlier results on four substances are cited in patent US20210186880A1, “ORAL FORMULATIONS WITH INCREASED UPTAKE” (Brown University, priority 2018, published 2021).

For series [1] the following is noted: in vivo.
The target in series [2] is T1, GLP-1 receptor (Homo sapiens, UniProt P43220).
Series [3] has as its target T1, GLP-1 receptor. The source holds these as a separate data set.
The conditions of series [4]: oral.

Where two headings read alike, the source gives them in different places. A value given as a limit tells only on which side of the number the result lay.

T1 sequence (P43220 24-463, species assumed): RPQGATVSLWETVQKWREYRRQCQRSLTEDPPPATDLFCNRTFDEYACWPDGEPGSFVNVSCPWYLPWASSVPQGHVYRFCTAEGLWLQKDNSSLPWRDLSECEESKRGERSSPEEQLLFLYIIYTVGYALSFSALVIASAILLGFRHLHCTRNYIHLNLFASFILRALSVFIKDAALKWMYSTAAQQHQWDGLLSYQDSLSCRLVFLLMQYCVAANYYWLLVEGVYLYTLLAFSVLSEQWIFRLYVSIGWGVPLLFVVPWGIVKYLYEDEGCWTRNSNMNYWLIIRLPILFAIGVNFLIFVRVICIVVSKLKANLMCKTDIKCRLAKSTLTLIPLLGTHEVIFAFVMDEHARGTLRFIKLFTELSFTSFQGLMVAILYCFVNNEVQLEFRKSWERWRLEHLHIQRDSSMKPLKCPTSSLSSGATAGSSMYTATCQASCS

On to “rGLP-1: rGLP-1 infused at 1.25-8.5 pmol/kg/min in a cited study”, for which the “fasting serum glucose decrease” value (1.25 pmol/kg/min) was 22.7 mg/dL, the “fasting serum glucose decrease” value (2.5 pmol/kg/min) is 37.0 mg/dL, the “fasting serum glucose decrease” value (5.0 pmol/kg/min) is 53.9 mg/dL and the “fasting serum glucose decrease” value (8.5 pmol/kg/min) was 76.2 mg/dL.
For the substance “semaglutide: GLP-1 analog acylated with a spacer and C-18 fatty di-acid chain”, in series [1], the plasma half-life result was “long”.
On to GLP-1(9-36)-NH2, for which the “binding affinity compared to the intact peptide, lower” value in series [2] is given as 100 fold. Further, in series [3], the “agonistic activity, decrease” value was over 10000 fold.
Regarding Glucagon-like peptide-1 [GLP-1], in series [4], the ghrelin secretion result is given as “suppressed ghrelin secretion” and the insulin release result is recorded as “potent effect on insulin release”. Besides, the plasma drug concentrations entry in series [4] (dose-escalating) is “rapid and dose-dependent increase in plasma drug concentrations”. Moreover, in series [4] (doses of 0.5, 1.0, 2.0, and 4.0 mg), the bioavailabilities result was “lower than 10%”. Moreover, the mean absolute bioavailability in series [4] (relative to intravenous administration) is listed as 4%. In addition, under “continuous 48-hour subcutaneous infusion, ~4-8 ng·kg^−1·min^−1”, the “fasting and postprandial glucose values” is “lowered fasting and postprandial glucose values”.
